Test [1] concerns HEK293 cells that express an HTT exon containing 17 glutamine repeats (HTT17Q-mCherry). Description: Huntington's Disease (HD) model: protein aggregates (puncta) per cell in HEK293H cells transfected with HTT17Q-mCherry. The settings on record: 6 h; for Effect on aggregate suppression compared to the MAL1-271 positive control: Example 1, FIG. 2, 10 μM compound; for Effectiveness compared to MAL1-271 (Less/Similar/More) / Effectiveness compared to the MAL1-271 positive control: 10 μM; for Effectiveness compared to MAL1-271 (Less/Similar/More): blunting formation of toxic aggregates; for Effectiveness compared to the MAL1-271 positive control: Example 2.
Method: Cells were stained for confocal microscope imaging with 4′,6-diamidino-2-phenylindole (DAPI), a fluorescent dye with high affinity to adenine-thymine rich DNA regions. A bright spot detection tool was used to identify and quantify the number of protein aggregates (“dots”) per cell.
Biological Assays: For HD assays, HEK293H cells were grown in DMEM (Sigma-Aldrich, Saint Louis, MO) supplemented with 10% fetal bovine serum (GE Healthcare Hyclone) and 1% penicillin/streptomycin (Thermo Fisher Scientific, Waltham, MA) at 37° C. and at a 5% CO2 atmosphere. Cells were seeded at 250,000 cells/plate in Poly-D-Lysine Coated 35 mm MatTek dishes (P35GC-1.5-10-C, MatTek Corporation, Ashland, MA). After 24 h growth, a total of 4 μg of mCherry tagged-polyglutamine-expanded (17-polyQ-expanded) huntingtin (HTT) was introduced using Lipofectamine 2000 (Invitrogen, Thermo Fisher Scientific) according to the manufacturer's instructions. […] The following day, cells were treated with vehicle (DMSO) as control or with 10 μM of the examined compounds for 6 h. The cells were then washed with PBS and fixed in 4% formaldehyde for 15 min at room temperature. Finally, cells were stained with DAPI (1:250 in PBS) for 4 h and maintained in PBS for confocal microscope imaging.
Complete volumes of cells were acquired at 0.5-μm steps, and volumes were reconstructed and analyzed using Nikon's NIS-Elements software (Nikon Instrument, Melville, NY). Bright spot detection tool was used to identify and quantify the number of protein aggregates (“dots”) per cell. A non-parametric Kruskal-Wallis test analysis was performed using Prism software (GraphPad, La Jolla, CA). Statistically significant differences between control (DMSO) and compound treated samples are indicated by asterisks in figure. To obtain representative images from this experiment, maximum intensity projections of 0.5-μm steps though the entire cell were generated using Nikon's NIS-Elements software.
Cells were stained for confocal microscope imaging with 4′,6-diamidino-2-phenylindole (DAPI) and bright spot detection tool was used to identify and quantify the number of protein aggregates (“dots”) per cell.

Test [2] has as its system HDAC 1-3. Put plainly: HDAC 1-3 assay (BioVision kit, HeLa nuclear extract). Particulars: for Percent inhibition HDAC 1-3: Compound tested at 1 uM.
Method: For HDAC 1-3 assays, kits from BioVision Incorporated (https://www.biovision.com/) were used and their recommended protocols followed. […] Each compound was dissolved in DMSO to generate a 100 μM stock solution, then diluted using HPLC-grade water to prepare 10 μM, 2 μM, and 1 μM solutions. These solutions were used for the assays. […] Assays utilized a BioTek Synergy H1 microplate reader and black Nunc MicroWell 96-well optical-bottom plates with polymer base.
HDAC 1-3: 10 μL of each diluted compound (10 μM) and 40 μL of HPLC-grade water were mixed and added into a well on the plate. […] Then, 50 μL of the reaction mixture was added to each well and the solution was mixed thoroughly. The reaction mixture consisted of 500 μL of 10×HDAC Assay buffer, 100 μL of HeLa nuclear extract, 250 μL of HDAC substrate, and 1.65 mL of HPLC-grade water. The plate was then warmed in an incubator at 37° C. with a rocker platform and was incubated for 30 min. After the incubation, 10 μL of Lysine Developer solution was added to each well. The plate was kept in the incubator for an additional 30 min. Afterwards, the plate was analyzed using a BioTek Synergy H1 microplate reader, taking two independent readings per well that were subsequently averaged.
Test [3] addresses T1, HDAC 8 (Homo sapiens, UniProt Q9BY41).
T1 sequence (Q9BY41 1-377): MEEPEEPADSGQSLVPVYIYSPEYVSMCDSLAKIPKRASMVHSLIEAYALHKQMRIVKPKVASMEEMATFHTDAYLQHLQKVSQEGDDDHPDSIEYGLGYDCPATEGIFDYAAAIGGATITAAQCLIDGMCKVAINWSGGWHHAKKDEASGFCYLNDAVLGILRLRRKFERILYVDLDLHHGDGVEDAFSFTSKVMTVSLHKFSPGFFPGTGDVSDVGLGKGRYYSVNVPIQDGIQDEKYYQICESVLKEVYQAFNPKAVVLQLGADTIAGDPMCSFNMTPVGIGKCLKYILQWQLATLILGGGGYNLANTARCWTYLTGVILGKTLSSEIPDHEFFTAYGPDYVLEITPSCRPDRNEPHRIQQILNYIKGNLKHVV
Put plainly: HDAC 8 assay (BPS Bioscience kit). The settings on record: read-out: Percent Inhibition.
Method: (§1) For HDAC 4-8 assays, kits from BPS Bioscience (https://bpsbioscience.com/) were used and their recommended protocols followed. […] Each compound was dissolved in DMSO to generate a 100 μM stock solution, then diluted using HPLC-grade water to prepare 10 μM, 2 μM, and 1 μM solutions. These solutions were used for the assays. […] Assays utilized a BioTek Synergy H1 microplate reader and black Nunc MicroWell 96-well optical-bottom plates with polymer base.
(§2) HDAC 4 (and, by analogy, HDAC 5, 6, 7, and 8): 40 μL of the parent solution was added to each well on the plate. The parent solution was prepared from a fluorogenic HDAC substrate, a 1 mg/mL solution of bovine serum albumin (BSA) in water, and HDAC assay buffer. 5 μL of the inhibitor buffer (10% DMSO in water) was added to the wells designated as “Blank” and “Positive Control” (no inhibitor). 5 μL of the test compound was added to each well designated as “Test Inhibitor”. Different concentrations of TSA (for a standard curve) was added to each well designated as “Standard.” 5 μL of HDAC assay buffer was added to the “Blank” wells. Then, 5 μL of HDAC 4 human recombinant enzyme was added to the wells designated as “Positive Control”, “Test Inhibitor”, and “Standard.” The plate was then warmed in an incubator at 37° C. with a rocker platform for 30 min After the incubation, 50 μL of 2×HDAC Developer solution was added to each well. The plate was returned to the incubator and was shaken on the rocker for an additional 15 min. at room temperature. Afterwards, the plate was analyzed using a BioTek Synergy H1 microplate reader, taking two independent readings per well that were subsequently averaged.

Test [4] has as its target T2, HDAC 6 (Homo sapiens, UniProt Q9UBN7).
T2 sequence (Q9UBN7 1-1215): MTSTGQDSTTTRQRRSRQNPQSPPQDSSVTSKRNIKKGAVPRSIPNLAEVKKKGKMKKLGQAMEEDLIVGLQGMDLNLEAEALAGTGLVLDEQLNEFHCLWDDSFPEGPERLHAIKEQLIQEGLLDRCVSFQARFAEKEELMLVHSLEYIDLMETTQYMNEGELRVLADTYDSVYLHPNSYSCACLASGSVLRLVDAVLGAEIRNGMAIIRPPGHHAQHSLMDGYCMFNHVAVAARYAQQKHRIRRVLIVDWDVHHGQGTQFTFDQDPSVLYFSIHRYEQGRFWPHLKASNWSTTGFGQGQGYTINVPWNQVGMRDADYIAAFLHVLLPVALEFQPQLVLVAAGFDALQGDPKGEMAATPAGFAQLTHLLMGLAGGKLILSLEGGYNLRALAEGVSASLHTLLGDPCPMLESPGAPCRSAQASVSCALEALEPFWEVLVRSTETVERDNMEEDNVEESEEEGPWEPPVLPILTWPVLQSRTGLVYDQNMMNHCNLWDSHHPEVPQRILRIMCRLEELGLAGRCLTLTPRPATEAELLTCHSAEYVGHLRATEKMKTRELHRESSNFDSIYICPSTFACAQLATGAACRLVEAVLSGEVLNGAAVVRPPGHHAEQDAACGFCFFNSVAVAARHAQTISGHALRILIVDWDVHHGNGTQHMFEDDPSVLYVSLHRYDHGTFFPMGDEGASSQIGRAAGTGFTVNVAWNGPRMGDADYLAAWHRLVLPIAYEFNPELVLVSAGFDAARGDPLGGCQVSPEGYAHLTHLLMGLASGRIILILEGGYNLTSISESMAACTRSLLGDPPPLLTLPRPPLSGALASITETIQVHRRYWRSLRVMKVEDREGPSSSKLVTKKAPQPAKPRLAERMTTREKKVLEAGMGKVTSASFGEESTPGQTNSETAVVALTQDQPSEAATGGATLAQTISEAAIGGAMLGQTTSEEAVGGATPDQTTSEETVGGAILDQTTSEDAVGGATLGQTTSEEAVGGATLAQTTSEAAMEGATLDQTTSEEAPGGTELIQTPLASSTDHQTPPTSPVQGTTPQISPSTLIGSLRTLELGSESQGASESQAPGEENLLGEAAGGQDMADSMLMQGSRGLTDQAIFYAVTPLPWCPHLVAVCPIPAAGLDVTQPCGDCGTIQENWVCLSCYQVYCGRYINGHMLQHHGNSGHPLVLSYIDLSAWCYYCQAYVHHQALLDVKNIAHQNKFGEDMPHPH
Put plainly: HDAC 6 assay (BPS Bioscience kit). Particulars: read-out: Percent Inhibition.
Method: as §1, §2

As for `CCOC(=O)C1=CN(Cc2ccc(C(=O)O)cc2)S(=O)(=O)NC1c1ccc(Cl)cc1Cl` (stereo not drawn) [Compound 7h, 4-((5-(2,4-Dichlorophenyl)-4-(ethoxycarbonyl)-1,1-dioxido-5,6-dihydro-2H-1,2,6-thiadiazin-2-yl)methyl)benzoic acid], the “Effect on aggregate suppression compared to the MAL1-271 positive control” value in test [1] was “less effective”.

With `CCOC(=O)C1=CN(CCCC(=O)OC)S(=O)(=O)NC1c1ccc(Cl)cc1Cl` (stereo not drawn) [Compound 5g, Ethyl 3-(2,4-dichlorophenyl)-6-(4-methoxy-4-oxobutyl)-3,6-dihydro-2H-1,2,6-thiadiazine-4-carboxylate 1,1-dioxide], the “Effect on aggregate suppression compared to the MAL1-271 positive control” value in test [1] is “less effective”. On the same count and under the same terms, in the case of `COC(=O)CCCN1C=C(C(=O)OCc2ccccc2)C(c2ccc(Cl)cc2Cl)NS1(=O)=O` (stereo not drawn) [Compound 18g, Benzyl 3-(2,4-dichlorophenyl)-6-(4-methoxy-4-oxobutyl)-3,6-dihydro-2H-1,2,6-thiadiazine-4-carboxylate 1,1-dioxide] it was “less effective”. Consider `CCOC(=O)C1=CN(C(=O)OC(C)(C)C)S(=O)(=O)N(Cc2ccc(C(=O)OC(C)(C)C)cc2)C1c1ccc(Cl)cc1Cl` (stereo not drawn) [Compound 6i, 2-(tert-Butyl) 4-ethyl 6-(4-(tert-butoxycarbonyl)benzyl)-5-(2,4-dichlorophenyl)-5,6-dihydro-2H-1,2,6-thiadiazine-2,4-dicarboxylate 1,1-dioxide], for which the “Effect on aggregate suppression compared to the MAL1-271 positive control” value in test [1] is given as “less effective”. Turning to `CCOC(=O)C1=CN(Cc2ccc(C(=O)NO)cc2)S(=O)(=O)N(C)C1c1ccc(Cl)cc1Cl` (single isomer, unassigned; (+)) [(+)-951_66, (+)-Ethyl 3-(2,4-dichlorophenyl)-6-(4-(hydroxycarbamoyl)benzyl)-2-methyl-3,6-dihydro-2H-1,2,6-thiadiazine-4-carboxylate 1,1-dioxide], the “Effectiveness compared to MAL1-271 (Less/Similar/More)” value in test [1] was “Less”. Turning to `CCOC(=O)C1=CN(Cc2ccc(C(=O)NO)cc2)S(=O)(=O)N(C)C1c1ccc(Cl)cc1Cl` (single isomer, unassigned; (-)) [(−)-951_67, (−)-Ethyl 3-(2,4-dichlorophenyl)-6-(4-(hydroxycarbamoyl)benzyl)-2-methyl-3,6-dihydro-2H-1,2,6-thiadiazine-4-carboxylate 1,1-dioxide], the “Effectiveness compared to MAL1-271 (Less/Similar/More)” value in test [1] is listed as “Similar”. Same read-out and setting: in the case of `O=C(O)CCCN1C=C(C(=O)OCc2ccc(Cl)cc2Cl)C(c2ccc(Cl)cc2Cl)NS1(=O)=O` (stereo not drawn) [Compound 959_30] it was “Similar”. With `CC(/C=C/C(=O)NO)=C\[C@@H](C)C(=O)c1ccc(N(C)C)cc1` [TSA, Trichostatin A], the “Percent Inhibition” value in test [2] (HDAC 1-3, standard at 0.0025 uM) was “NIA”; in test [2] (HDAC 1-3, standard at 0.005 uM) it was “NIA”; in test [2] (HDAC 1-3, standard at 0.05 uM) it was 33%; in test [2] (HDAC 1-3, standard at 0.1 uM) it was 49%; in test [2] (HDAC 1-3, standard at 1 uM) it was 68%. In the case of `CCOC(=O)C1=CN(Cc2ccc(C(=O)NO)cc2)S(=O)(=O)N(CC2CC2)C1c1ccc(Cl)cc1Cl` (stereo not drawn) [Compound 930_63, Ethyl 2-(cyclopropylmethyl)-3-(2,4-dichlorophenyl)-6-(4-(hydroxycarbamoyl)benzyl)-3,6-dihydro-2H-1,2,6-thiadiazine-4-carboxylate 1,1-dioxide], in test [1], the “Effectiveness compared to MAL1-271 (Less/Similar/More)” value was “More” and the “Effectiveness compared to the MAL1-271 positive control” value is on record as “more effective”.

As for `O=C(CCCN1C=C(C(=O)OCc2ccccc2)C(c2ccc(Cl)cc2Cl)NS1(=O)=O)OCCN1CCOCC1` (stereo not drawn) [Compound 959_74, Benzyl 3-(2,4-dichlorophenyl)-6-(4-(2-morpholinoethoxy)-4-oxobutyl)-3,6-dihydro-2H-1,2,6-thiadiazine-4-carboxylate 1,1-dioxide], the “Effectiveness compared to MAL1-271 (Less/Similar/More)” value in test [1] is on record as “Similar”. With `CCOC(=O)C1=CN(Cc2ccc(C(=O)NO)cc2)S(=O)(=O)NC1c1ccc(Cl)cc1Cl` (stereo not drawn) [Compound 12h, Ethyl 3-(2,4-dichlorophenyl)-6-(4-(hydroxycarbamoyl)benzyl)-3,6-dihydro-2H-1,2,6-thiadiazine-4-carboxylate 1,1-dioxide], the “Percent inhibition HDAC 1-3” value in test [2] is listed as 22%. In the case of `CCOC(=O)C1=CN(Cc2ccc(C(=O)NO)cc2)S(=O)(=O)N(C)C1c1ccc(Cl)cc1Cl` (stereo not drawn) [Compound 930_62, Ethyl 3-(2,4-dichlorophenyl)-6-(4-(hydroxycarbamoyl)benzyl)-2-methyl-3,6-dihydro-2H-1,2,6-thiadiazine-4-carboxylate 1,1-dioxide], in test [1], the “Effectiveness compared to MAL1-271 (Less/Similar/More)” value is recorded as “More” and the “Effectiveness compared to the MAL1-271 positive control” value was “more effective”. `CCOC(=O)C1=CN(Cc2ccc(CO)cc2)S(=O)(=O)NC1c1ccc(Cl)cc1Cl` (stereo not drawn) [Compound 5h, Ethyl 3-(2,4-dichlorophenyl)-6-(4-(hydroxymethyl)benzyl)-3,6-dihydro-2H-1,2,6-thiadiazine-4-carboxylate 1,1-dioxide]: the “Effect on aggregate suppression compared to the MAL1-271 positive control” value in test [1] is given as “less effective”.

Turning to `O=C(O)CCCN1C=C(C(=O)O)C(c2ccc(Cl)cc2Cl)NS1(=O)=O` (stereo not drawn) [Compound 9g, 6-(3-Carboxypropyl)-3-(2,4-dichlorophenyl)-3,6-dihydro-2H-1,2,6-thiadiazine-4-carboxylic acid 1,1-dioxide], the “Effect on aggregate suppression compared to the MAL1-271 positive control” value in test [1] was “less effective”. As for `O=C(CCCCCCC(=O)Nc1ccccc1)NO` [SAHA, Vorinostat], in test [3], the inhibition at 0.05 µM is 54%, the inhibition at 0.2 µM worked out at 67%, the inhibition at 1 µM turned out to be 70% and the inhibition at 2 µM amounted to 86%. Besides, in test [3], the inhibition at 5 µM turned out to be 96%. Also, in test [4], the inhibition at 0.001 µM was determined as 6%, the inhibition at 0.005 µM amounted to 25%, the inhibition at 0.01 µM is 47% and the inhibition at 0.5 µM came out at 94%. For the molecule `CCOC(=O)C1=CN(CCCC(=O)NO)S(=O)(=O)NC1c1ccc(Cl)cc1Cl` (stereo not drawn) [Compound 12g, Ethyl 3-(2,4-dichlorophenyl)-6-(4-(hydroxyamino)-4-oxobutyl)-3,6-dihydro-2H-1,2,6-thiadiazine-4-carboxylate 1,1-dioxide], the “Percent inhibition HDAC 1-3” value in test [2] stood at 1%.

These data come from US12600705B2, “Heat shock protein modulators and anti-Huntington disease therapeutic agents” (UNIVERSITY OF PITTSBURGH-OF THE COMMONWEALTH SYSTEM OF …, priority 2020, dated 2026).
